US12350249B2, “Efficient anti-bacterial hydroxy acid ester oligomer” (NANJING BIOSERICA ERA BIOLOGICAL TECHNOLOGY CO., LTD., priority 2020, dated 2025)
In brackets after ≈: the same amount, converted by molar mass.

Experiments:
[1] = system: Escherichia coli ATCC25922; experiment: Minimum inhibitory concentration MIC (agar method), Table 3; format: cell-based
Description: (§1) Anti-bacterial tests and c log P theoretical calculation are performed on the products of the embodiment 2 and the embodiment 3, as shown in Table 3. [table]

[2] = system: Escherichia coli ATCC25922; experiment: Minimum Inhibitory Concentration Test (Nutrition Broth Method), Table 3; format: cell-based
Description: as §1

[3] = system: Escherichia coli ATCC 25922; experiment: Anti-bacterial experiment, GB/T 20944.3-2008 shake flask method; format: cell-based
Description: Adding 10 g of 3-hydroxybutyrate ethyl ester and 0.01 g of zinc acetate (i.e. a mass ratio of 3-hydroxybutyrate ethyl ester is 0.1%) in a three-necked flask with mechanical stirring, a thermometer and a distillation device, wherein a stirring speed is approximately 150 revolutions; under an environment with a trace of nitrogen, increasing a temperature to 150° C. with a speed of 0.5-3° C./min to react for 1 hour, then stopping reaction to obtain a 3-HB oligomer; detecting a degree of polymerization by a mass spectrometry, wherein an anti-bacterial experiment refers to GB/T 20944.3-2008 Textiles-Evaluation for anti-bacterial activity-Part 3: Shake flask method, a strain used is Escherichia coli ATCC 25922.

K. pneumoniae = conditions: disclosed in CN110452115A; cited from earlier work
C. albicans = conditions: disclosed in CN110452115A; cited from earlier work
S. aureus = conditions: disclosed in CN110452115A; cited from earlier work

| Molecule | Minimum inhibitory concentration MIC (agar method) [1] [%] | MIC [2] [µg/mL] | further results |
| --- | --- | --- | --- |
| COC(=O)C[C@@H](C)O [Embodiment 2-1, R-(−)-3-hydroxybutyric methyl ester] | 10 | 62.5 (≈ 529 µM) |  |
| CCOC(=O)C[C@@H](C)O [Embodiment 2-2, R-(−)-3-hydroxybutyrate ethyl ester] | 5 | 31.2 (≈ 236 µM) |  |
| CCCOC(=O)C[C@@H](C)O [Embodiment 2-3, R-(−)-3-hydroxybutyrate propyl ester] | 2 | 15.6 (≈ 107 µM) |  |
| CCCCOC(=O)C[C@@H](C)O [Embodiment 2-4, R-(−)-3-hydroxybutyrate butyl ester] | 1 | 7.81 (≈ 48.7 µM) |  |
| CCCCCOC(=O)C[C@@H](C)O [Embodiment 2-5, R-(−)-3-hydroxybutyrate pentyl ester] | 0.5 | 3.91 (≈ 22.4 µM) |  |
| CCCCCCOC(=O)C[C@@H](C)O [Embodiment 2-6, R-(−)-3-hydroxybutyrate hexyl ester] | 0.25 | 1.95 (≈ 10.4 µM) |  |
| CCCCCCCOC(=O)C[C@@H](C)O [Embodiment 2-7, R-(−)-3-hydroxybutyrate heptyl ester] | >15 | 31.2 (≈ 154 µM) |  |
| CCCCCCCCOC(=O)C[C@@H](C)O [Embodiment 2-8, R-(−)-3-hydroxybutyrate octyl ester] | >20 | 31.2 (≈ 144 µM) |  |
| CCCCCCOC(=O)[C@@H](C)O [Embodiment 3-1, R-(−)-lactate hexyl ester] | 0.25 | 1.95 (≈ 11.2 µM) |  |
| CCOC(=O)[C@@H](C)O [Embodiment 3-2, R-(−)-lactate ethyl ester] | 5.25 | 35.5 (≈ 301 µM) |  |
| CCCCCCCOC(=O)[C@@H](C)O [Embodiment 3-3, R-(−)-lactate heptyl ester] | 4.38 | 28.6 (≈ 152 µM) |  |
| R-(−)-3-hydroxybutyrate ethyl ester oligomer [Embodiment 1-3] |  |  | Anti-bacterial rate (%) [3]: 99% |
| poly-3-hydroxybutyrate oligomer |  |  | minimum inhibitory concentration (MIC) (K. pneumoniae): 12500 µg/mL; minimum inhibitory concentration (MIC) (C. albicans): 25000 µg/mL; minimum inhibitory concentration (MIC) (S. aureus): 6250 µg/mL |
